“And” between values parts separate entries of the source, which are not always exact repeats. Equal values may be shown once.
Tested on: 463943-066-T-J2-PDC complex spheroid growth
Experiment: Anticancer human tumor 463943-066-T-J2-PDC patient-derived colon adenocarcinoma cell line growth inhibition [Asc]
Details: for viability, T/C: stronger effect = lower value
Method: Multicellular complex tumor spheroid response to apoptosis pathway targeting inhibitors Alrizomadlin, Pelcitoclax, and Dasminapant in combination with a variety of drugs and investigational agents in selected tumor cell lines
The MDM2 inhibitor alrizomadlin, the Bcl-2/Bcl-xL inhibitor pelcitoclax, and the IAPs inhibitor dasminapant were evaluated both individually and in combination with standard of care and investigational anticancer small molecules within a complex spheroid model of solid tumors. . Complex spheroids include a stromal component modeled by human endothelial cells (HUVEC) and fibroblasts modeled by human mesenchymal stem cells (MSCs). The concentration ranges selected for each drug and investigational agent were based upon clinically achievable concentrations if the clinical Cmax of the agent was known.
Compounds. The drugs and investigational agents: alrizomadlin (APG-115; NSC831270), pelcitoclax (APG-1252; NSC835773), dasminapant (APG-1387;NSC834197), TAK-243 (NSC785004), copanlisib (NSC809693), olaparib (NSC753686), talazoparib (NSC767125), cobimetinib (NSC 768068), eltanexor (KPT-8602, NSC 794443), abemaciclib (NSC 768073), sotorasib (NSC818433), adagrasib (NSC 831453), MRTX-1133 (NSC 836407), Iadademestat (ORY1001, NSC 806812), and RMC-4630 (NSC839698), were obtained from the NCI Developmental Therapeutics Program Chemical Repository. The FDA-approved anticancer drug set is available from the Developmental Therapeutics Program at https://dtp.cancer.gov/organization/dscb/obtaining/available plates.htm. […] The stock solutions were prepared in dimethyl sulfoxide (DMSO, Sigma-Aldrich, St. Louis, MO, cat. D2650) at 800-fold the tested concentration and stored at -70 degrees C prior to their use. All drugs and investigational agents were tested over a range starting from a high concentration at or near the clinical Cmax and decreasing in half-log increments. If the clinical Cmax for an agent had not been determined, the highest concentration tested was 10 microM.
The patient-derived cancer (PDC) cell lines include five colon adenocarcinomas: 186277-243-T-J2-PDC, 616215-338-R-J1-PDC, 439559-082-T-J2-PDC, 463943-066-T-J2-PDC, and 519858-162-T-J1-PDC; three pancreatic carcinomas: 323965-272-R-J2-PDC, 521955-158-R6-J3-PDC, and 521955-158-R2-J5-PDC; two uterine sarcomas: 327498-152-R-J2-PDC and 993429-296-R-J1-PDC; two rhabdomyosarcomas: 755483-174-R-J1-PDC and 772245-204-R-J1-PDC; two soft tissue sarcomas: 126254-015-R-J1-PDC and 494315-158-R-J1-PDC; two malignant fibrous histiocytomas: 317291-083-R-J1-PDC and 596521-263-R-J1-PDC; two breast carcinomas: 171881-019-R-J1-PDC and 885512-296-R-J2-PDC; and one ovarian carcinoma: 6556581-035-R-J-PDC were obtained from the NCI PDMR, (https://pdmr.cancer.gov). The established cell lines HSSY-2 synovial sarcoma (RRID:CVCL 8719), SYO-1 synovial sarcoma (RRID:CVCL_7146), MPNST malignant peripheral neural sheath tumor were obtained from the Sloan Kettering Institute. The following established cell lines were purchased from the American Type Culture Collection (ATCC, Manassas, VA), Sor the received from the NCI repository:, PANC-1 pancreatic carcinoma (CRL-1469, RRID:CVCL_0480), OVCAR-5 ovarian carcinoma (RRID:CVCL_1628), OVCAR-8 ovarian carcinoma (RRID:CVCL_1629), , MCF-7 breast carcinoma (CRL-12584, RRID:CVCL_0031), MDA-MB-231 breast carcinoma (CRL-12532, RRID:CVCL_0062), NCI-H1876 small cell lung carcinoma (CRL-5902, RRID:CVCL_1503), NCI-H510A small cell lung carcinoma (HTB-184, RRID:CVCL_1565), NCI-H1417 (CRL-5869, RRID:CVCL_1469), and NCI-H196 small cell lung carcinoma (CRL-5823, RRID:CVCL_1509). Dr. Peter Houghton (Greehey Children's Cancer Research Institute, University of Texas Health Science Center, San Antonio, TX) provided Rh-18 rhabdomyosarcoma (RRID:CVCL_1659). Pooled donor human umbilical vein endothelial cells (HUVEC, Lonza, cat. CC-2519) and human mesenchymal stem cells (hMSC, Lonza, cat. PT-2501) were purchased from Lonza (Walkersville, MD).
Cell Culture. […]
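Note: compound exposure lasted 7 days.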
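Throughout, for viability, T/C: 100% = DMSO vehicle control wells.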

| Structure (SMILES) | IC50 (compound alone, run of 11/07/2022) [nM] | IC50 (curve of compound) | viability, T/C (compound 0.0316 µM) | viability, T/C (compound 0.1 µM) | viability, T/C (compound 0.316 µM) | viability, T/C (compound 1 µM) | viability, T/C (compound 3.16 µM) | viability, T/C (compound 10 µM) | viability, T/C (compound 0.00949 µM) | viability, T/C (compound 0.03 µM) | viability, T/C (compound 0.0949 µM) | viability, T/C (compound 0.3 µM) | viability, T/C (compound 0.949 µM) | viability, T/C (compound 3 µM) | viability, T/C (compound 0.000316 µM) | viability, T/C (compound 0.001 µM) | viability, T/C (compound 0.00316 µM) | viability, T/C (compound 0.01 µM) | viability, T/C (compound 0.000949 µM) | viability, T/C (compound 0.003 µM) |
| --- | --- | --- | --- | --- | --- | --- | --- | --- | --- | --- | --- | --- | --- | --- | --- | --- | --- | --- | --- | --- |
| Cc1nc(N2CCC3(CC2)COC(C)C3N)c(CO)nc1Sc1ccnc(N)c1Cl (centres undefined) |  | > 3000 nM |  |  |  |  |  |  | 97.7% and 107% (2×) | 88.5% and 90.2% and 90.5% | 86.5% and 88.5% and 79.4% | 87.4% and 87% and 82% | 87% and 81.9% and 80.6% | 70.8% (2×) and 71.8% |  |  |  |  |  |  |
| NC(=O)C(=Cn1cnc(-c2cc(C(F)(F)F)cc(C(F)(F)F)c2)n1)c1cncnc1 |  | > 300 nM |  |  |  |  |  |  | 92.6% and 85.6% and 96.3% | 87.8% and 84.8% and 87.7% | 83.6% and 81.3% and 79.4% | 73.8% and 73.3% and 60.4% |  |  |  |  |  |  | 96.5% and 87.3% and 115% | 84.7% and 83.7% and 102% |
| NC1CCC(NC2CC2c2ccccc2)CC1 (centres undefined) |  | > 100 nM | 94.2% and 88.1% | 86.1% and 94.9% |  |  |  |  |  |  |  |  |  |  | 89.8% and 86.8% | 94.3% and 87.5% | 87.3% and 94.4% | 92.6% and 95.7% |  |  |
| O=C(c1cc(Cc2n[nH]c(=O)c3ccccc23)ccc1F)N1CCN(C(=O)C2CC2)CC1 |  | > 10000 nM | 98.1% and 99.9% and 93.3% | 98.8% and 91.9% and 78.9% | 99.5% and 98.5% and 103% | 96.7% and 97.9% and 108% | 103% and 97.2% and 92.4% | 92.1% and 91.5% and 97.2% |  |  |  |  |  |  |  |  |  |  |  |  |

The next lines start with results.

| IC50 (compound alone, run of 11/07/2022) [nM] | IC50 (curve of compound) | Structure (SMILES) | viability, T/C (compound 0.0316 µM) | viability, T/C (compound 0.1 µM) | viability, T/C (compound 0.316 µM) | viability, T/C (compound 1 µM) | viability, T/C (compound 3.16 µM) | viability, T/C (compound 10 µM) | viability, T/C (compound 0.00949 µM) | viability, T/C (compound 0.03 µM) | viability, T/C (compound 0.0949 µM) | viability, T/C (compound 0.3 µM) | viability, T/C (compound 0.949 µM) | viability, T/C (compound 3 µM) | viability, T/C (compound 0.000316 µM) | viability, T/C (compound 0.001 µM) | viability, T/C (compound 0.00316 µM) | viability, T/C (compound 0.01 µM) | viability, T/C (compound 0.000949 µM) | viability, T/C (compound 0.003 µM) |
| --- | --- | --- | --- | --- | --- | --- | --- | --- | --- | --- | --- | --- | --- | --- | --- | --- | --- | --- | --- | --- |
| > 10000 |  | Cc1c(S(C)(=O)=O)c(-c2cc(F)cc(N3CCN(c4ccc(NS(=O)(=O)c5ccc(NC(CCN6CCC(C(=O)OCCCP(=O)(O)O)CC6)CSc6ccccc6)c(S(=O)(=O)C(F)(F)F)c5)cc4)CC3)c2)c(-c2ccc(Cl)cc2)n1C(C)C (centres undefined) | 96.2% [middle of 7 runs] | 94.8% [middle of 7 runs] | 87.8% [middle of 7 runs] | 78% [middle of 7 runs] | 62.6% [middle of 7 runs] | 56.5% [middle of 7 runs] |  |  |  |  |  |  |  |  |  |  |  |  |
|  | > 100 nM | Cn1ncnc1[C@H]1c2n[nH]c(=O)c3cc(F)cc(c23)N[C@@H]1c1ccc(F)cc1 | 102% and 103% (2×) | 99.3% and 97.9% and 94% |  |  |  |  |  |  |  |  |  |  | 98.9% and 88% and 106% | 91.2% and 98.6% and 99.5% | 103% and 107% and 104% | 96.4% and 102% (2×) |  |  |
|  | 159 nM and 140 nM and 397 nM | O=C(c1ccc(F)c(F)c1Nc1ccc(I)cc1F)N1CC(O)([C@@H]2CCCCN2)C1 | 71.1% and 60.7% and 77.5% | 57.1% and 58.9% and 75.6% | 39.7% and 42% and 51.9% | 29% and 29.9% and 35.8% |  |  |  |  |  |  |  |  |  |  | 88.3% and 95.1% and 104% | 79.2% and 78% (2×) |  |  |
